Data reported in patent publication US20050215646A1, “Methods for treating multiple sclerosis and pharmaceutical compositions therefor” (Renovis, Inc., priority 2004, published 2005).

Key:
[1] = system: rat EAE model; assay: Lewis rat model of experimental autoimmune encephalomyelitis (EAE); format: in vivo; conditions: 10 mg/kg/day oral gavage
Protocol: 7- to 10-week female Lewis rats (The Jackson Laboratory, Bar Harbor, Me.) were used since they are susceptible to EAE, and since MS occurs at a 2:1 ratio between females and males respectively. Rats were immunized either at the base of the tail (or in one hind footpad) with myelin antigen myelin basic peptide, MBP 85-99. Peptide antigens were mixed with complete Freund's adjuvant including killed mycobacterium tuberculosis at a doses of 4 mg/ml. 200 micrograms of antigen mixed with the 0.1 ml emulsion of adjuvant were used. The myelin antigens were dissolved in phosphate buffered saline.
Nine rats were used in each of the following groups: EAE control, vehicle control, compound 15 (prevention), compound 15 (pro-treatment), phenyl-N-butyl-nitrone (prevention) and phenyl-N-butyl-nitrone (pro-treatment). For the treatment model, fifteen rats were used in each of three groups: EAE control, vehicle control, compound 15 (treatment). Drugs were administered via oral gavage feeding. Rats were dosed daily after the first dose until recovery from acute disease (typically 20 days after EAE induction). Compound 15 was dosed at 10 mg/kg/day and phenyl-N-butyl-nitrone was dosed at 100 mg/kg/day. In the prevention model, first dose of the drugs was administered 7 days prior to EAE induction. In the pro-treatment model, first dose was administered 4 days after EAE induction. In the treatment model, first dose was administered at the peak of the disease after animals were randomized into equal groups.
All rats were followed daily for clinical signs and weighed every four days. Longer water tubes were used to allow mice to drink when they develop paralysis, and chow was put on the floor of the cage to facilitate nourishment if the rats were paralyzed. Rats were scored as follows: 0, healthy; 1, tail weakness or paralysis; 2, paraparesis (incomplete paralysis of one or two hind limbs or plegia of one hind limb); 3, paraplegia extending to the thorax; 4, forelimb weakness, paralysis with hind limb paraparesis or paraplegia; 5, moribund or dead animal.

[2] = target: CXCR4 (Homo sapiens, UniProt P61073); assay: Migration of RBL-2H3 cells expressing CXCR4; format: cell-based; parameters: cDNA fragments encompassing chemokine receptor coding regions; expressed in transfected cells; conditions: RBL-2H3 cells expressing CXCR4, 2 hours
Protocol: (§1) RBL-2H3 cells were obtained from American Type Culture Collection (CRL-2256) and cultured in Minimum essential medium (MEM) with 10% heat-inactivated fetal bovine serum, 100 μg/ml penicillin/streptomycin. cDNA fragments encompassing chemokine receptor coding regions were obtained from cDNAs synthesized from HL-60 cells and/or human peripheral blood mononuclear cells by the polymerase chain reaction. Expression constructs of chemokine receptors were generated by cloning PCR fragments into expression vector pEF6/V5-TOPO (K9610-20, Invitrogen). Plasmid containing full-length human CXCR5 cDNA (human CXCR50TN00, pcDNA3.1+) was purchased from UMR cDNA Resource Center (Rolla, Mo.). Plasmid containing full-length human CCR7 cDNA (human CCR0700000, pcDNA3.1+) was purchased from UMR cDNA Resource Center (Rolla, Mo.). Transient transfections were carried out with Fugene 6 transfection reagent (1814443, Roche Applied Science) according to the manufacturer's instructions. […]
(§2) Following the migration assays, cells that had migrated to the bottom wells were quantitated using CyQuant reagents according to the manufacturer's instructions (Molecular Probes, Eugene, Oreg.). […] The fluorescence intensity (excitation wavelength at 485 nm and emission wavelength at 530 nm) was measured using Safire Spectrometer (Tecan; Research Triangle Park, N.C.).

[3] = target: T1, CCR7 (Homo sapiens, UniProt P32248); assay: Migration of RBL-2H3 cells expressing CCR7; format: cell-based; conditions: RBL-2H3 cells expressing CCR7, 2 hours
T1 construct: Plasmid containing full-length human CCR7 cDNA; host or cells: RBL-2H3 (ATCC CRL-2256), transient transfection
T1 sequence (P32248 25-378): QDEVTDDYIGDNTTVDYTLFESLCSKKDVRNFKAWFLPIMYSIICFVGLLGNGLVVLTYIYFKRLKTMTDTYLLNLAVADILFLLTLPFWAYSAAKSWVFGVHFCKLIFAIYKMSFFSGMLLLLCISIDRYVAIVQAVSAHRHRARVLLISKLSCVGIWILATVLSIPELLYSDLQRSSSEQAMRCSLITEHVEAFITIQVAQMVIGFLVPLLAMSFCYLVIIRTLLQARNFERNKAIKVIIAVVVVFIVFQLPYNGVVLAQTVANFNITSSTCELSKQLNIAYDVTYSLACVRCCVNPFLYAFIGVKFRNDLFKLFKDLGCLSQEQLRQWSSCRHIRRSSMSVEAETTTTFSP
Protocol: as §1, §2

CXCR4, sequence (P61073 whole entry, the tested form may be a part): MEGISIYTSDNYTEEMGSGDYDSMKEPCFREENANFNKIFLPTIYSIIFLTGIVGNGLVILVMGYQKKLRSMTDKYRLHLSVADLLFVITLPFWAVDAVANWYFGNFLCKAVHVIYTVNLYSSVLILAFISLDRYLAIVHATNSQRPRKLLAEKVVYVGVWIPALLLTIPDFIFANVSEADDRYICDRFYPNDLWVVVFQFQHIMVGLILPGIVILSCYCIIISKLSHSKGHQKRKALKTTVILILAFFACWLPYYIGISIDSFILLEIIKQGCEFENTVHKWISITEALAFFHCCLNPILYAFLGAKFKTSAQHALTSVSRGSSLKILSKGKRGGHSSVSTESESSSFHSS

SMILES | disease free rats, treatment model ([1]; first dose at the peak of EAE, compared to controls, FIG. 14) | clinical scores, pro-treatment model ([1]; rats, first dose 4 days after EAE induction, compared to control or PBN, FIG. 13) | change of clinical scores on day 15, pro-treatment model ([1]; rats, first dose 4 days after EAE induction, day 15) | clinical scores, prevention model ([1]; rats, first dose 7 days prior to EAE induction, compared to controls and to PBN (100 mg/kg/day), FIG. 12) | induction of cell migration [2] | induction of cell migration [3]
COCOc1c(C(C)(C)C)cc(/C=[N+](\[O-])C(C)(C)C)cc1C(C)(C)C [Compound 15, α-(4-methoxymethoxy-3,5-di-tert-butyl-phenyl)-N-tert-butylnitrone] | significantly more rats treated with compound 15 were disease free | significantly better clinical scores | improved dramatically | significantly better clinical scores |  | 
CCC(C)c1cc(/C=[N+](\[O-])C(C)(C)C)cc(C(C)CC)c1O (stereo not drawn) [Compound 17] |  |  |  |  | induced migration | induced migration
